{"source": "patent US20090317419A1", "about": "“Tetramers” (Duke University, priority 2008, published 2009)", "key": {"[1]": {"tested_on": "CD19+ B cells of HIV-1 infected subject", "method": "Staining of bulk populations for the sorts. Cells from uninfected or HIV-1 infected patients were obtained by leukopheresis under an IRB-approved protocol and were rested in culture overnight in 10% FBS in RPMI-1640 at 37° C. in 5% CO2. Rested cells were enriched for B cells by depletion of non-B cells using magnetic bead separation (BD Biosciences, Mountain View, Calif.). […] Cells were sorted on a BD FACS Aria (BD Biosciences, Mountain View, Calif.) into CD3^− CD14^− CD16^− CD19^+ tetramer and CD3^− CD14^− CD16^− CD19^+ tetramer^+ pools and also as single cells into a 96-well plates containing RNA extraction buffer."}, "[2]": {"tested_on": "mixture of anti-gp41 MPER 13H11 cells and anti-gp120 V3 F39F cells", "method": "(§1) Use of antibody-coated beads and cell lines for tetramer quality control. Tetramer stocks were diluted to twice the desired final concentration in PBS containing 1% BSA. An equal volume of beads or cells at 5×10^5 up to 2×10^6 per sample were mixed with tetramer and incubated (4° C.×30 min). Beads or cells were washed with PBS+1% BSA before being fixed in 2% methanol-free formaldehyde (Polysciences, Inc, Warrington, Pa.) in PBS. Samples were stored at 4° C. prior to being analyzed by flow cytometry (BD LSR II, Becton Dickinson, Mountain View, Calif.). Data were analyzed using FlowJo (Tree Star, Ashland, Oreg.). For tetramer titration 40-80 ng tetramer per 10^6 cells/beads was serially diluted over 8-12 points. Optimal concentrations determined by this method were used for subsequent experiments. For cold competition experiments the incubation step was performed by staining with 10-fold excess unlabeled tetramer (4° C.×30 min) prior to the addition of APC-labeled tetramer. For cell dilution experiments, a mixture of mAb cell lines was made and then 1:10 serial dilutions of cells prepared. For cross competition experiments, mixtures of cells were prepared and then stained singly with anti-IgG reagents or tetramer, or the cells were doubly stained with both reagents either sequentially or concurrently."}, "13H11 cells": {"tested_on": "13H11 cells", "conditions": "flow cytometry", "method": "as §1"}, "[3]": {"tested_on": "mAb 13H11 and mAb 2F5 on beads", "conditions": "flow cytometry, mAbs 13H11 and 2F5 on beads", "method": "Antibody-coated beads. Carboxyl-polystyrene beads (3.0-3.4 μm) (Spherotech, Inc., Lake Forest, Ill.) were resuspended in 0.01 M sodium acetate buffer (pH 5.0) and reacted (20° C.×1 hr) with 1-ethyl-3-(3-dimethylaminopropyl) carbodiimide hydrochloride (EDC) (Sigma-Aldrich, Co., St. Louis, Mo.) at a ratio of 3.1 mg beads to 1 mg EDC. Beads were washed with sodium acetate buffer, resuspended in a minimal volume before adding purified mAb in the same buffer (ratio of 16 mg beads to 1 mg mAb), incubated (20° C.×2 hrs), then washed with sodium acetate buffer. Beads were resuspended at 5% in PBS containing 1% bovine serum albumin and 0.02% sodium azide.\nas §1"}}, "note": "Like-named read-outs stand apart in the source and are kept apart here. Ends that are not written are not given here. * marks the point of attachment. Biotin = O=C1N[C@H]2[C@H](CS[C@H]2CCCCC(=O)*)N1"}
{"substance": "Biotin-GGGQQEKNEQELLELDKWASLWN [gp41 MPER tetramer]", "values": [{"measurement": "tetramer positive cells of CD19+ B cells", "setting": "[1]; before sorting, non-B cell depleted PBMC", "value": 0.15, "unit": "%"}, {"measurement": "tetramer positive cells of CD19+ B cells", "setting": "[1]; reanalysis after sorting of tetramer positive gate", "value": 45.3, "unit": "%"}, {"measurement": "cells stained with tetramer", "setting": "[2]; mixture diluted tenfold with F39F cells", "value": 1.47, "unit": "%"}, {"measurement": "cells staining over background", "setting": "[2]; mixture further diluted tenfold with F39F cells", "value": 0.12, "unit": "%"}, {"measurement": "cells stained with tetramer", "setting": "[2]; mixture of 85% F39F cells and 15% 13H11 cells", "value": 15.1, "unit": "%"}, {"measurement": "binding to mAb cell line", "setting": "13H11 cells", "value": "bound"}, {"measurement": "binding to antibody-coated beads", "setting": "[3]", "value": "bound to both the non-neutralizing mAb 13H11 and the neutralizing anti-gp41 mAb 2F5"}]}
